Measurements: patent US5102786A, “Biological diagnostic assay system” (PB Diagnostic Systems, Inc., priority 1987, dated 1992)

What was measured:
[1] = system: plasma proteins; experiment: Displacement of a theophylline-rhodamine conjugate from plasma proteins (Centricon 30 filtration, 500-600 nm); format: binding, human
Source text: The solutions were centrifuged through a Centricon 30 filter at 5000 g and the filtrates were scanned on a Perkin Elmer λ9 Spectrophotometer at 500-600 nm.

[2] = system: B-phycoerythrin; experiment: Fluorescent emission of B-phycoerythrin as a function of PNS and ANS; settings: for effect on fluorescence emission of B-phycoerythrin in solution (in words): 0.125-0.50% agent
Protocol: (§1) The fluorescent emissions of B- and R-phycoerythrin were studied as a function of PNS and 8-anilino-1-naphthalene sulfonic acid (ANS). The experiments were conducted with solutions of the phycoerythrin (1.7×10^-10 M) in HEPES buffer containing varying amounts of PNS and ANS. The phycoerythrins were excited at 560 nm and their emissions measured at 575 nm.

[3] = system: plasma proteins; experiment: Displacement of phenobarbital from plasma protein (filtration through Centricon PM 10, scintillation counting)
[4] = target: T1, HSA (Homo sapiens, UniProt P02768); experiment: Displacement of a fluorescein-theophylline conjugate from HSA (Centricon 30 filtration, 490 nm); format: binding; parameters: CONJUGATE (free conjugate in filtrate): unit not given here; settings: 0.2% PNS
T1 sequence (P02768 25-609): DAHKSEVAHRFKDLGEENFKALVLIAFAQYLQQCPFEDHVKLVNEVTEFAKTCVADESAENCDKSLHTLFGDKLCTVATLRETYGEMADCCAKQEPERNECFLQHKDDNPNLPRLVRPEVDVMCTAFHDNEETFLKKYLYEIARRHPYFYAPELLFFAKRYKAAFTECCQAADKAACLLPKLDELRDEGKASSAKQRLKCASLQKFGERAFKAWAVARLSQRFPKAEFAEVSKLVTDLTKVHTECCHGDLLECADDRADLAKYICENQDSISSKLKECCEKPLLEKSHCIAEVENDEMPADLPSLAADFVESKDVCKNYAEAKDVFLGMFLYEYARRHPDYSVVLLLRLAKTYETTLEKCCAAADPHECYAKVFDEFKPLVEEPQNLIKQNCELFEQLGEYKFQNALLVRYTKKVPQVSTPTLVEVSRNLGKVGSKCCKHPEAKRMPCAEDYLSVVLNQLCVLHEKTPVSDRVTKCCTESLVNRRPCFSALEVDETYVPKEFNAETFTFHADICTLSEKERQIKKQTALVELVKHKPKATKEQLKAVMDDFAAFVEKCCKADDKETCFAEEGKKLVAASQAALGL
Protocol: (§2) Experiments were carried out with fluorescein and a fluorescein-theophylline conjugate, respectively, dissolved in HEPES buffer and containing various amounts of HSA. […] The solutions were centrifuged through a Centricon 30 filter at 5000 g and the filtrates were scanned at 490 nm.

[5] = target: T1, HSA; experiment: Displacement of fluorescein from HSA (Centricon 30 filtration, 490 nm)
Protocol: as §2

[6] = system: R-phycoerythrin; experiment: Fluorescent emission of R-phycoerythrin as a function of PNS and ANS; settings: for effect on fluorescence emission of R-phycoerythrin in solution (in words): 0.125-0.50% agent
Protocol: as §1

[7] = target: T2, plasma proteins (Homo sapiens, UniProt P02768); experiment: in vitro; format: binding
T2 construct: Experiments were conducted with a set of plasma solutions in HEPES buffer; from tissue; host or cells: plasma
T2 sequence (P02768 25-609): as above
Protocol: Experiments were conducted with a set of plasma solutions in HEPES buffer containing ^14 C-labeled phenytoin (9.3×10^-5 M) and varying amounts of PNS.

[8] = Solubility of PNS in water; format: physicochemical
[9] = target: Human Serum Albumin (HSA) (Homo sapiens, UniProt P02768); experiment: Displacement of sulforhodamine 101 from human serum albumin (Centricon 30 filtration, absorbance 586 nm); format: binding
Chain of Human Serum Albumin (HSA) (P02768 25-609): as above
Protocol: Two sets of aqueous solutions, 1.05×10^-5 M in sulforhodamine 101, were prepared in HEPES buffer with varying amounts of HSA.

[10] = Displacement of phenobarbital from plasma protein (filtration through Centricon PM 10, scintillation counting); settings: human, plasma
[11] = 0.125% PNS or ANS, excited at 560 nm, emission 575 nm, HEPES buffer

Cn1c(=O)c2[nH]c(CCCC(=O)N3CCN(C(=O)c4ccccc4C4=c5cc6c(cc5Oc5cc7c(cc54)CCCN7CC(=O)NCCS(=O)(=O)O)=[N+](CC(=O)NCCS(=O)(=O)[O-])CCC6)CC3)nc2n(C)c1=O [theophylline-rhodamine conjugate, reference compound]
% CONJUGATE (free conjugate in the filtrate) ([1]; CONTROL (no PNS), 0% plasma, 10 µM): 100%
% CONJUGATE (free conjugate in the filtrate) ([1]; CONTROL (no PNS), 5% plasma, 10 µM): 93%
% CONJUGATE (free conjugate in the filtrate) ([1]; CONTROL (no PNS), 20% plasma, 10 µM): 82%
% CONJUGATE (free conjugate in the filtrate) ([1]; CONTROL (no PNS), 45% plasma, 10 µM): 70%
% CONJUGATE (free conjugate in the filtrate) ([1]; CONTROL (no PNS), 65% plasma, 10 µM): 66%
% CONJUGATE (free conjugate in the filtrate) ([1]; CONTROL (no PNS), 85% plasma, 10 µM): 57%
% CONJUGATE (free conjugate in the filtrate) ([1]; CONTROL (no PNS), 95% plasma in HEPES buffer, 10 µM): 50%

O=S(=O)(O)c1cccc2cccc(Oc3ccccc3)c12 [PNS, 1-phenoxynaphthalene-8-sulfonic acid]
B-phycoerythrin rel. fl. intensity in the presence of PNS or ANS [2, 11]: 1.0
effect on fluorescence emission of B-phycoerythrin in solution (in words) [2]: does not affect the fluorescence emissions
B-phycoerythrin rel. fl. intensity in the presence of PNS or ANS ([2]; 0.25% PNS or ANS): 1.0
B-phycoerythrin rel. fl. intensity in the presence of PNS or ANS ([2]; 0.375% PNS or ANS): 1.0
B-phycoerythrin rel. fl. intensity in the presence of PNS or ANS ([2]; 0.50% PNS or ANS): 1.0
% PHENOBARBITAL (±3%) (passed through filter) ([3]; 0.02% PNS in human plasma): 62.7%
% PHENOBARBITAL (±3%) (passed through filter) ([3]; 0.05% PNS in human plasma): 71.1%
% PHENOBARBITAL (±3%) (passed through filter) ([3]; 0.2% PNS in human plasma): 93.0%
% PHENOBARBITAL (±3%) (passed through filter) ([3]; 0.5% PNS in human plasma): 97.0%
dissociation of phenobarbital from plasma proteins (in words) ([3]; human, plasma): effective to dissociate phenobarbital from the plasma proteins
providing free conjugate (in words) [4]: effective in providing free dye and free conjugate
CONJUGATE (free conjugate in filtrate) ([4]; 0% HSA): 100
CONJUGATE (free conjugate in filtrate) ([4]; 0.075% HSA): 93
CONJUGATE (free conjugate in filtrate) ([4]; 0.15% HSA): 87
CONJUGATE (free conjugate in filtrate) ([4]; 0.3% HSA): 87
CONJUGATE (free conjugate in filtrate) ([4]; 0.6% HSA): 82
CONJUGATE (free conjugate in filtrate) ([4]; 0.9% HSA): 76
CONJUGATE (free conjugate in filtrate) ([4]; 1.2% HSA): 72
CONJUGATE (free conjugate in filtrate) ([4]; 1.5% HSA): 69
providing free dye (in words) ([5]; 0.2% PNS): effective in providing free dye and free conjugate
DYE (free dye in filtrate) ([5]; 0.2% PNS, 0% HSA): 100
DYE (free dye in filtrate) ([5]; 0.2% PNS, 0.075% HSA): 99
DYE (free dye in filtrate) ([5]; 0.2% PNS, 0.15% HSA): 97
DYE (free dye in filtrate) ([5]; 0.2% PNS, 0.3% HSA): 98
DYE (free dye in filtrate) ([5]; 0.2% PNS, 0.6% HSA): 93
DYE (free dye in filtrate) ([5]; 0.2% PNS, 0.9% HSA): 92
DYE (free dye in filtrate) ([5]; 0.2% PNS, 1.2% HSA): 89
DYE (free dye in filtrate) ([5]; 0.2% PNS, 1.5% HSA): 88
R-phycoerythrin rel. fl. intensity in the presence of PNS or ANS [6, 11]: 1.0
effect on fluorescence emission of R-phycoerythrin in solution (in words) [6]: does not affect the fluorescence emissions
R-phycoerythrin rel. fl. intensity in the presence of PNS or ANS ([6]; 0.25% PNS or ANS): 0.99
R-phycoerythrin rel. fl. intensity in the presence of PNS or ANS ([6]; 0.375% PNS or ANS): 0.99
R-phycoerythrin rel. fl. intensity in the presence of PNS or ANS ([6]; 0.50% PNS or ANS): 0.98
% Phenytoin (±3) passed through filter ([7]; 0.1% PNS): 97.5%
providing free phenytoin (in words) ([7]; 0.1-0.5% PNS): very effective in providing free phenytoin
% Phenytoin (±3) passed through filter ([7]; 0.2% PNS): 98.6%
% Phenytoin (±3) passed through filter ([7]; 0.3% PNS): 98.7%
% Phenytoin (±3) passed through filter ([7]; 0.4% PNS): 98.6%
% Phenytoin (±3) passed through filter ([7]; 0.5% PNS): 96.7%
solubility in water ([8]; pH range of interest (above 3, preferably 6 to 8)): soluble in water at the required concentrations
solubility in water ([8]; very low pH, below pH 3): precipitate from solution
% CONJUGATE (free conjugate in the filtrate) ([1]; 0.2% PNS, 0% plasma): 100%
% CONJUGATE (free conjugate in the filtrate) ([1]; 0.2% PNS, 20% plasma): 94%
% CONJUGATE (free conjugate in the filtrate) ([1]; 0.2% PNS, 40% plasma): 88%
% CONJUGATE (free conjugate in the filtrate) ([1]; 0.2% PNS, 60% plasma): 87%
% CONJUGATE (free conjugate in the filtrate) ([1]; 0.2% PNS, 75% plasma): 89%
% CONJUGATE (free conjugate in the filtrate) ([1]; 0.2% PNS, 90% plasma): 88%
providing free conjugate (in words) ([1]; 0.2% PNS, human plasma): very effective in providing free conjugate
providing free sulforhodamine 101 (in words) ([9]; 0.2% PNS): very effective in providing free sulforhodamine 101
% SULFORHODAMINE 101 (PASSED THROUGH FILTER) ([9]; 0.2% PNS, 0% HSA): 100%
% SULFORHODAMINE 101 (PASSED THROUGH FILTER) ([9]; 0.2% PNS, 0.032% HSA): 99%
% SULFORHODAMINE 101 (PASSED THROUGH FILTER) ([9]; 0.2% PNS, 0.064% HSA): 94%
% SULFORHODAMINE 101 (PASSED THROUGH FILTER) ([9]; 0.2% PNS, 0.13% HSA): 88%
% SULFORHODAMINE 101 (PASSED THROUGH FILTER) ([9]; 0.2% PNS, 0.16% HSA): 83%
% SULFORHODAMINE 101 (PASSED THROUGH FILTER) ([9]; 0.2% PNS, 0.32% HSA): 68%
% SULFORHODAMINE 101 (PASSED THROUGH FILTER) ([9]; 0.2% PNS, 0.48% HSA): 61%

O=C1OC2(c3ccc(O)cc3Oc3cc(O)ccc32)c2ccccc21 [fluorescein, reference compound]
DYE (free dye in filtrate) ([5]; CONTROL (no PNS), 0% HSA, HEPES buffer): 100
DYE (free dye in filtrate) ([5]; CONTROL (no PNS), 0.075% HSA): 83
DYE (free dye in filtrate) ([5]; CONTROL (no PNS), 0.15% HSA): 69
DYE (free dye in filtrate) ([5]; CONTROL (no PNS), 0.3% HSA): 52
DYE (free dye in filtrate) ([5]; CONTROL (no PNS), 0.5% HSA): 40
DYE (free dye in filtrate) ([5]; CONTROL (no PNS), 0.6% HSA): 35
DYE (free dye in filtrate) ([5]; CONTROL (no PNS), 1.0% HSA): 24
DYE (free dye in filtrate) ([5]; CONTROL (no PNS), 1.2% HSA): 20
DYE (free dye in filtrate) ([5]; CONTROL (no PNS), 1.5% HSA): 17

O=C1NC(=O)C(c2ccccc2)(c2ccccc2)N1 [phenytoin, reference compound]
fraction unbound at 93 µM ([7]; plasma): 0.119

CCC1(c2ccccc2)C(=O)NC(=O)NC1=O [phenobarbital, reference compound]
fraction unbound [10]: ~0.55
fraction unbound at 1 h [10]: 0.555

O=S(=O)(O)c1cccc2cccc(Nc3ccccc3)c12 [ANS, 8-anilino-1-naphthalene sulfonic acid, reference compound]
B-phycoerythrin rel. fl. intensity in the presence of PNS or ANS [2, 11]: 0.61
effect on fluorescence emission of B-phycoerythrin in solution (in words) [2]: quenches the emissions of both phycoerythrins very strongly
B-phycoerythrin rel. fl. intensity in the presence of PNS or ANS ([2]; 0.25% PNS or ANS): 0.43
B-phycoerythrin rel. fl. intensity in the presence of PNS or ANS ([2]; 0.375% PNS or ANS): 0.33
B-phycoerythrin rel. fl. intensity in the presence of PNS or ANS ([2]; 0.50% PNS or ANS): 0.25
R-phycoerythrin rel. fl. intensity in the presence of PNS or ANS [6, 11]: 0.72
effect on fluorescence emission of R-phycoerythrin in solution (in words) [6]: quenches the emissions of both phycoerythrins very strongly
R-phycoerythrin rel. fl. intensity in the presence of PNS or ANS ([6]; 0.25% PNS or ANS): 0.54
R-phycoerythrin rel. fl. intensity in the presence of PNS or ANS ([6]; 0.375% PNS or ANS): 0.40
R-phycoerythrin rel. fl. intensity in the presence of PNS or ANS ([6]; 0.50% PNS or ANS): 0.29

O=S(=O)([O-])c1cc(S(=O)(=O)O)ccc1C1=c2cc3c4c(c2Oc2c1cc1c5c2CCCN5CCC1)CCC[N+]=4CCC3 [sulforhodamine 101, reference compound]
% SULFORHODAMINE 101 (PASSED THROUGH FILTER) ([9]; CONTROL (no PNS), 0% HSA, HEPES buffer, 10.5 µM): 100%
% SULFORHODAMINE 101 (PASSED THROUGH FILTER) ([9]; CONTROL (no PNS), 0.032% HSA, 10.5 µM): 83%
% SULFORHODAMINE 101 (PASSED THROUGH FILTER) ([9]; CONTROL (no PNS), 0.064% HSA, 10.5 µM): 50%
% SULFORHODAMINE 101 (PASSED THROUGH FILTER) ([9]; CONTROL (no PNS), 0.13% HSA, 10.5 µM): 32%
% SULFORHODAMINE 101 (PASSED THROUGH FILTER) ([9]; CONTROL (no PNS), 0.16% HSA, 10.5 µM): 23%
% SULFORHODAMINE 101 (PASSED THROUGH FILTER) ([9]; CONTROL (no PNS), 0.32% HSA, 10.5 µM): 10%
% SULFORHODAMINE 101 (PASSED THROUGH FILTER) ([9]; CONTROL (no PNS), 0.48% HSA, 10.5 µM): 6%
